Among the data in publication PMC6533141 (Chemical biology & drug design, 2019) are Ki and IC50 values, retold here.

By IC50 is commonly meant the concentration that inhibits the measured activity by half.

The target in assay [1] is T1, HAT1 (Homo sapiens, UniProt O14929).
T1 sequence (O14929 20-341): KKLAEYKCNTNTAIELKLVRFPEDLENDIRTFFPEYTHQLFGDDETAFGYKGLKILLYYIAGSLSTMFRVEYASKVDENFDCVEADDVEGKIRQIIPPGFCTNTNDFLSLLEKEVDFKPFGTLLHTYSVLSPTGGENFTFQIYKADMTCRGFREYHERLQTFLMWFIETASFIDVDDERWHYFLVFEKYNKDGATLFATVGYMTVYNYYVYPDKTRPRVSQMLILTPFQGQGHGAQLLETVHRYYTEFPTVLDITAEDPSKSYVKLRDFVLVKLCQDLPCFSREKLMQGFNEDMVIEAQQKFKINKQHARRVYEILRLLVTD
In words: Scintillation proximity assay. The conditions noted are these: SPA, 40 nM HAT1, […] H4-20 BTN, 1 µM [3H]AcCoA, 30°C, 20 min; for Ki: calculated from Kiapp (Equation 2); for IC50: calculated from Kiapp (Equation 3). It is filed as biochemical.

Assay [2] has as its system p300. The conditions noted are these: cited from earlier work.

Each structure is given as a SMILES string.

For the compound `CC(=O)N[C@@H](CCCCNC(=O)CSCCNC(=O)CCNC(=O)[C@H](O)C(C)(C)COP(=O)(O)OP(=O)(O)OC[C@H]1O[C@@H](n2cnc3c(N)ncnc32)[C@H](O)[C@@H]1OP(=O)(O)O)C(N)=O` [Lys-CoA, Ac-Lys(CoA)-NH2], the Ki was 26.2 µM in assay [1] and 0.019 µM in assay [2] (previous study). In addition, the figures for the IC50 in assay [1] and in assay [2] were 74.9 µM and 0.5 µM, respectively.
For `CC(C)(COP(=O)(O)OP(=O)(O)OC[C@H]1O[C@@H](n2cnc3c(N)ncnc32)[C@H](O)[C@@H]1OP(=O)(O)O)[C@@H](O)C(=O)NCCC(=O)NCCS` [CoA], in assay [1], the Ki was 14.6 µM and the IC50 was 41.5 µM.
